SMILES strings stand for the structures.

Among the data in US20030186978A1, “Novel telomerase inhibitors” (priority 2000, published 2003) are IC50 values, retold here.

The assay addresses telomerase enzyme (Homo sapiens, UniProt O14746). In words: Flash Plate-based telomerase assay. To be noted: two hours of incubation at 37°; only indicative, obtained during screening by fitting a limited number of experimental points. Type of assay: biochemical. An excerpt: The telomerase activity of the compounds of the invention has been evaluated using a Flash Plate-based assay. […] Other methods for determining the inhibitory concentration of a compound of the invention against telomerase can be employed as will be apparent to a person skilled in the art based on the disclosure herein.
Briefly, the assay mixture is costituted by:
telomerase enzyme diluted in a buffer, the composition of which has been selected to maintain the enzyme activity stable along the duration of the assay.
dNTPs, deoxynucleotides 5′-triphosphate.
biotynilated oligo as primer.
increasing concentrations of test compounds/positive control.
After two hours of incubation at 37° degrees the telomeric repeats added are evaluated by hybridization in solution with a 3′-labeled short oligonucleotide probe. The extent of hybridization is then quantitated by transferring the reaction mixture in a streptavidin-coated flash plate, where the binding between biotin and streptavidin occurs. The telomerase activity is proportional to the radioactivity measured and the inhibitory activity of the compounds is evaluated as IC50 using the Sigma Plot fit program. With the above-described method, IC50 values of the compounds of the present invention were determined. The data reported in Table 1 are only indicative since obtained during the screening by fitting a limited number of experimental points.

Chain of telomerase enzyme (O14746 whole entry): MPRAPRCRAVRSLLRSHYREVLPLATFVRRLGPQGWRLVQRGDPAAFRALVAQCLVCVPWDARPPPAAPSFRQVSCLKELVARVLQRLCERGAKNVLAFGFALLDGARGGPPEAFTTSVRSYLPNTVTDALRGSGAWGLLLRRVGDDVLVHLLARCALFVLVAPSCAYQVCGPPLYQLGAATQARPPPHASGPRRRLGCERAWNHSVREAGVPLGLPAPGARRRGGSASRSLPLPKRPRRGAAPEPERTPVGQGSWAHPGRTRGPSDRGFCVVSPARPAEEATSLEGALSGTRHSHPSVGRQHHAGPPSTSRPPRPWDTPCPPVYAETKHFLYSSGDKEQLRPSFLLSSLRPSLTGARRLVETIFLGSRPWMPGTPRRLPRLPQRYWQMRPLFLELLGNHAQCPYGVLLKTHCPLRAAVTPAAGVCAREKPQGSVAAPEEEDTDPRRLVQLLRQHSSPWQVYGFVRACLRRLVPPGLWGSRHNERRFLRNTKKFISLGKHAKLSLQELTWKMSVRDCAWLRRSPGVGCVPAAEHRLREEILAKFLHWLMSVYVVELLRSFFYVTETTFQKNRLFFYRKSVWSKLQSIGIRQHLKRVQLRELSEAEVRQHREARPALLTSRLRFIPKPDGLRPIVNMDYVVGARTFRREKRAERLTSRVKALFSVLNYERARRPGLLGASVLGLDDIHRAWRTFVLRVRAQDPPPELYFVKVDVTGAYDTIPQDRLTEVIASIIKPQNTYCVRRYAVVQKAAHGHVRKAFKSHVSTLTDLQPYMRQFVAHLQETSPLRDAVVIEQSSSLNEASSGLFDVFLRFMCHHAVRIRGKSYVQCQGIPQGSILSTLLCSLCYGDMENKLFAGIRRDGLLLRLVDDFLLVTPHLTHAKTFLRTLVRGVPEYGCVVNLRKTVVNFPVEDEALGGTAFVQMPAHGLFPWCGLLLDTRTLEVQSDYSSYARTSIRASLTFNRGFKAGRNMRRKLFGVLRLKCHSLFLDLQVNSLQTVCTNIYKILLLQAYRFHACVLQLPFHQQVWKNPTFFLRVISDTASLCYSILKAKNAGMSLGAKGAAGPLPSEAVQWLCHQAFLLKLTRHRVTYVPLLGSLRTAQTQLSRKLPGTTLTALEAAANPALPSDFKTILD

By IC50 is commonly meant the concentration that inhibits the measured activity by half. A higher IC50 goes with weaker potency in that assay. In turn, `Nc1nc(=O)c2c(ncn2Cc2ccc3ccccc3c2)n1Cc1ccc2ccccc2c1` [Compound 1, 2-amino-3,7-bis(2-naphthylmethyl)-3,7-dihydro-6H-purin-6-one] registered an IC50 of 4 µM. This lies in the single-digit micromolar range.
Under `Nc1nc(=O)c2c(ncn2Cc2ccc(-c3ccccc3)cc2)n1Cc1ccc(-c2ccccc2)cc1` [Compound 2, 2-amino-3,7-bis-[(1,1′-biphenyl)-4-ylmethyl]-3,7-dihydro-6H-purin-6-one] stands 3 µM; under `Nc1nc(=O)c2c(ncn2Cc2ccc(-c3ccc(CCl)cc3)cc2)n1Cc1ccc(-c2ccc(CCl)cc2)cc1` [Compound 3, 2-amino-3,7-bis{[4′-(chloromethyl)[1,1′-biphenyl]-4-yl]methyl}-3,7-dihydro-6H-purin-6-one], 5 µM; under `Nc1nc(=O)c2c(ncn2Cc2ccc(Cl)c(Cl)c2)n1Cc1ccc(Cl)c(Cl)c1` [Compound 4, 2-amino-3,7-bis(3,4-dichlorobenzyl)-3,7-dihydro-6H-purin-6-one], 4 µM.
Under `Nc1nc(=O)c2c(ncn2Cc2ccc3ccccc3c2)n1Cc1ccc(-c2ccccc2)cc1` [Compound 5, 2-amino-3-([1,1-biphenyl]-4-ylmethyl)-7-(2-naphthylmethyl)-3,7-dihydro-6H-purin-6-one] stands 2 µM.
The value for `Nc1nc(=O)c2c(ncn2Cc2ccc(-c3ccccc3)cc2)n1Cc1ccc2ccccc2c1` [Compound 6, 2-amino-3-(2-naphthylmethyl)-7-([1,1′-biphenyl]-4-ylmethyl)-3,7-dihydro-6H-purin-6-one] was 2 µM; that for `Nc1nc(=O)c2c(ncn2Cc2ccc3ccccc3c2)n1Cc1ccc(Cl)c(Cl)c1` [Compound 7, 2-amino-3 (3,4-dichlorobenzyl)-7-(2-naphthylmethyl)-3,7-dihydro-6H-purin-6-one] was 3 µM.
Take `Nc1nc(=O)c2c(ncn2Cc2ccc3ccccc3c2)n1Cc1cccc(Oc2ccccc2)c1` [Compound 8, 2-amino-3-(3-phenoxybenzyl)-7-(2-naphthylmethyl)-3,7-dihydro-6H-purin-6-one]: 3 µM corresponded to half-maximal inhibition (IC50).
Under `Nc1nc(=O)c2c(ncn2Cc2ccc3ccccc3c2)n1Cc1ccc2c(c1)C(=O)c1ccccc1C2=O` [Compound 19, 2-{[2-amino-7-(2-naphthylmethyl)-6-oxo-6,7-dihydro-3H-purin-3-yl]methyl}anthra-9,10-quinone] stands 4 µM; under `Nc1nc(=O)c2c(ncn2Cc2ccc3ccccc3c2)n1Cc1ccc(-c2nnn[nH]2)cc1` [Compound 27, 2-amino-7-(2-naphthylmethyl)-3-[4-(1H-tetraazol-5-yl)benzyl]-3,7-dihydro-6H-purin-6-one], 19 µM.
The value for `COC(=O)c1cccc(Cn2c(N)nc(=O)c3c2ncn3Cc2ccc3ccccc3c2)c1` [Compound 29, Methyl 3-{[2-amino-7-(2-naphthylmethyl)-6-oxo-6,7-dihydro-3H-purin-3-yl]methyl}benzoate] was 21 µM.
